Source: US8202902B2, “Bivalent SMAC mimetics and the uses thereof” (The Regents of the University of Michigan, priority 2006, dated 2012)

Experiments:
[1] = test system: MDA-MB-231 xenograft model; assay: Inhibition of tumor growth in the MDA-MB-231 xenograft model; format: in vivo, mice
Description: SM-164 was evaluated for its ability to inhibit tumor growth. […] Treatment with SM-164 at 5 mg/kg reduces the tumor volume from 147±54 mm^3 at the beginning of the treatment (day 25) to 54±32 mm^3 at the end of the treatment (day 36), a reduction of 65%. The strong antitumor activity by SM-164 is long lasting and not transient.

[2] = test system: MDA-MB-231 (2LMP) human breast cancer cells; assay: Cell growth inhibition by cisplatin or mitoxantrone with SH-164; format: cell-based; conditions: 100 nM
Description: Cells were seeded in 96-well flat bottom cell culture plates at a density of 3000 cells/well with a tested compound and incubated at 37° C. in an atmosphere of 95% air and 5% CO2 for 4 days. The rate of cell growth inhibition after treatment with different concentrations of the compound was determined using a WST-8 kit (2-(2-methoxy-4-nitrophenyl)-3-(4-nitrophenyl)-5-(2, 4 disulfophenyl)-2H-tetrazolium monosodium salt; Dojindo Molecular Technologies, Inc., Gaithersburg, Md.). WST-8 was added at a final concentration of 10% to each well, and then the plates were incubated at 37° C. for 2-3 hrs. The absorbance of the samples was measured at 450 nm using a ULTRA Tecan Reader (Molecular Device).

cellular XIAP = cellular XIAP (Homo sapiens, UniProt P98170); conditions: cited from earlier work
[3] = test system: MDA-MB-231, SK-OV-3 and MALME-3M cell lines; assay: Western blot analysis of caspase processing and PARP cleavage; format: cell-based
Description: Treatment with SM-164 at 1 nM for 12 h induced 32%, 33%, and 37% of the MDA-MB-231, SK-OV-3 and MALME-3M cells to undergo apoptosis, respectively (FIGS. 12-14).

[4] = test system: HCT116 XIAP^+/+ and XIAP^−/− isogenic cell lines; assay: HCT116 XIAP+/+ and XIAP-/- isogenic cell lines, Smac mimetics with TNFα; format: cell-based
From the text: To complement the siRNA experiments and to more precisely define the role of XIAP in TNFα-dependent apoptosis induction by Smac mimetics, HCT116 XIAP^+/+ and XIAP^−/− isogenic cell lines were used in further studies (Cummins et al., Cancer Res. 64:3006 (2004)). Since both these cell lines were resistant to SM-122 and SM-164 as a single agent (FIG. 41), the role of XIAP using Smac mimetics in combination with TNFα was investigated.
The combination of SM-164 at these concentrations with TNFα was effective in induction of caspase-3 activation, PARP cleavage and in inhibition of cell growth in the XIAP^+/+ cell line (FIG. 42). Although knockout of XIAP sensitized the HCT116 cells to SM-164 in combination with TNFα, the effect was much less than that observed with the combination of SM-122 with TNFα (FIG. 42).

[5] = target: T1, Recombinant XIAP containing linker-BIR2-BIR3 (residues 120-356) (Homo sapiens, UniProt P98170); assay: Cell-free functional assay: antagonism of XIAP inhibition of caspase-3/-7; format: biochemical
T1 construct: Recombinant XIAP containing linker-BIR2-BIR3 (residues 120-356)

[6] = test system: XIAP stably transfected Jurkat leukemia cell line (XIAP-JK) and vector control cell line (VEC-JK); assay: XIAP-overexpressing Jurkat cells, Smac mimetics with TNFα; format: cell-based
From the text: The effect of XIAP overexpression in cancer cells on TNFα-dependent apoptosis induction by Smac mimetics was investigated. Since stable transfection of XIAP in those sensitive cancer cell lines was unsuccessful, the previously well-characterized XIAP stably transfected Jurkat leukemia cell line (XIAP-JK) and its vector control cell line (VEC-JK) were employed (Wilkinson et al., Mol. Cell. Biol. 24:7003 (2004)). The VEC-JK cell line with low expression of XIAP was sensitive to SM-122 or SM-164 in combination with TNFα (FIG. 43).

[7] = test system: MDA-MB-231 xenograft tumor tissues; assay: cIAP-1 degradation and apoptosis in MDA-MB-231 xenograft tumor and normal tissues; format: in vivo, mice
Description: To further investigate its therapeutic potential and in vivo mechanism, SM-164 was evaluated in the MDA-MB-231 xenograft model in mice. […] A single dose of SM-164 at 5 mg/kg decreased the level of cIAP-1 protein within 1 h and the effect lasted for at least 24 h. […] Apoptosis was examined by TUNEL staining using the In situ Cell Death Detection Kit (Roche Applied Science). To determine apoptosis in xenograft tumor and normal mouse tissues, severe combined immunodeficient (SCID) mice bearing established tumor were treated with Smac mimetics. Tissues were harvested and TUNEL staining was performed on formaldehyde-fixed, paraffin-embedded tissues. Paraffin-embedded tissue sections, mounted on slides, were deparaffinized and rehydrated by washing in a descending series of alcohol solutions (100%, 95%, 70% and 50%) and PBS. Antigen retrieval was performed by the microwave oven method using a commercially available antigen retrieval buffer (Covance Research Products, Inc.). Tissue sections were blocked with 3% BSA and 20% normal bovine serum in PBS for 30 min at room temperature (RT) to block unspecific binding sites. Tissue sections were incubated in 100 μl of TUNEL mixture [TUNEL mixture=10 μl of Enzyme solution (Vial 1)+90 μl of Label solution (Vial 2)] for 60 min at RT. Tissue section incubated in 90 μl of Label solution (Vial 2), instead of TUNEL mixture was used as negative control. Tissue section preincubated in DNase I recombination in 3000 U/ml of PBS, 1 mg/ml BSA for 10 min RT, followed by incubation with TUNEL mixture was used as positive control. Tissues slides were rinsed with PBS 5 min ×3, and stained with Propidium iodide and mounted and observed under a fluorescent microscope. […] The strong apoptosis induction by SM-164 was still evident at the 24 h time point. […] In contrast to the strong apoptosis induction and damage in xenograft tumor tissues, SM-164 has no effect on all the normal mouse tissues examined, including highly proliferative tissues such as the small intestine, stomach, liver and spleen (FIGS. 47-49).
Using the MDA-MB-231 xenograft model, SM-122 was also examined for its ability to induce cIAP-1 degradation and apoptosis in tumor tissues in vivo.

T1 sequence (P98170 120-356): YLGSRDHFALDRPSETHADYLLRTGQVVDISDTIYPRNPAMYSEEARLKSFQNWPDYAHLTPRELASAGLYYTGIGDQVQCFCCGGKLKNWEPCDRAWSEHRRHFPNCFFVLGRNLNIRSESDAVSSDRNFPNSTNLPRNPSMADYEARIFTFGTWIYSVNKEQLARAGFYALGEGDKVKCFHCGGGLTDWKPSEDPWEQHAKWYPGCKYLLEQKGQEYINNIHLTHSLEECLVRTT
Chain of cellular XIAP (P98170 whole entry): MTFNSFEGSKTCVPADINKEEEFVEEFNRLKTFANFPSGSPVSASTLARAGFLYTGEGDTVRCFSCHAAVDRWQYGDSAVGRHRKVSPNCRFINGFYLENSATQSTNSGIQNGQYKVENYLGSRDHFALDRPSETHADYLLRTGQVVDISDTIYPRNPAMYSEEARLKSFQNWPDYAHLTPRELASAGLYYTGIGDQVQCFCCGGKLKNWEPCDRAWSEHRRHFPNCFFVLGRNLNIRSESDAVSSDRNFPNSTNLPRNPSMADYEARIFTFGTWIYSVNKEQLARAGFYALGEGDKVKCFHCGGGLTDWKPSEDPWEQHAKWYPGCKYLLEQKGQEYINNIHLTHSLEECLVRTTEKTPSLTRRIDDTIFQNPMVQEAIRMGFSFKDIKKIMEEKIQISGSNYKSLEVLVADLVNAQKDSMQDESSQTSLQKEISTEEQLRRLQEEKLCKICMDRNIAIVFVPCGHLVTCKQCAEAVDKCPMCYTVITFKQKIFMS

CN[C@@H](C)C(=O)N[C@H]1CCCC[C@H]2CC[C@@H](C(=O)N[C@@H](c3ccccc3)c3cn(CCCCc4ccc(CCCCn5cc([C@@H](NC(=O)[C@@H]6CC[C@@H]7CCCC[C@H](NC(=O)[C@H](C)NC)C(=O)N76)c6ccccc6)nn5)cc4)nn3)N2C1=O [SH-164]
tumor growth during the treatment ([1]; 1 mg/kg): completely inhibits tumor growth
tumor volume at the beginning of the treatment ([1]; 5 mg/kg, day 25): 147±54 mm^3
reduction of tumor volume ([1]; 5 mg/kg, day 25 to day 36): 65%
tumor volume at the end of the treatment ([1]; 5 mg/kg, day 36): 54±32 mm^3
efficacy compared with TXT ([1]; 5 mg/kg, end of treatment (p<0.01) or control tumor 750 mm^3 (p<0.02)): statistically more effective than TXT
weight loss or other sign of toxicity ([1]; 1 or 5 mg/kg): no significant weight loss or other sign of toxicity
sensitization to growth inhibition by cisplatin and mitoxantrone [2]: sensitized the cells to growth inhibition by both agents
more potent than SM-122 in competing off a biotinylated Smac mimetic to cellular XIAP (cellular XIAP): > 100 times
induction of cell death, caspase processing and PARP cleavage, comparison ([3]; SM-164 at 1 nM): as effective as SM-122 at 1,000 nM
levels of pro-caspase-3, -8 and -9 (cleaved PARP increased) ([3]; concentration as low as 1 nM): markedly decreased
caspase-3 activation, PARP cleavage and cell growth inhibition ([4]; 10-100 nM with TNFα, XIAP+/+ cell line): effective
cIAP-1 degradation ([4]; 10-100 nM, both cell lines): effectively induced cIAP-1 degradation
sensitivity as a single agent ([4]; both cell lines): resistant
more potent than SM-122 in antagonizing XIAP and promoting caspase activity [5]: 60 times
sensitivity in combination with TNFα ([6]; VEC-JK cell line): sensitive
sensitivity in combination with TNFα ([6]; XIAP-JK cell line): much less effective than in the VEC-JK cell line
activation of caspase-8, -9, and -3 and cleavage of PARP ([7]; 3 h time point, persisted for 24 h): Robust activation
TUNEL positive tumor cells ([7]; 6 h time point): more than 50%
H&E staining of tumor tissues ([7]; mouse, in vivo): profound damage to tumor tissues
duration of cIAP-1 decrease ([7]; single dose 5 mg/kg): at least 24 h
time to decrease of cIAP-1 protein level in tumor ([7]; single dose 5 mg/kg): ≤ 1 h
effect on normal mouse tissues ([7]; small intestine, stomach, liver, spleen etc.): no effect
